Data on nine compounds can be found in PubChem BioAssay (NCI).

Some test systems named below: 786-0 renal; BT-549 breast; CCRF-CEM leukemia; DU-145 prostate; HCC-2998 colon; HS 578T breast; MCF7 breast; MDA-MB-231 breast; MDA-N; NCI-H226 lung; SF-295 CNS; SK-MEL-5 melanoma; SN12C renal; SNB-19 CNS; SW-620 colon.
Holding throughout (assay): growth of human tumour cells (NCI), 48 h

SMILES strings stand for the structures.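 Grown in 96-well plates, cells were treated for 48 hours with each compound at five concentrations. Insufficient inhibition: endpoint recorded as highest concentration tested. The concentration for full growth arrest is given as TGI.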

Regarding `O=C(OCc1ccccc1)N(CCCCN(CCCNC(=O)C(F)(F)F)C(=O)OCc1ccccc1)CCCNC(=O)C(F)(F)F`, the TGI in the experiment on 786-0 renal, in the experiment with BT-549 breast, in the experiment on CCRF-CEM leukemia, in the experiment on DU-145 prostate, in the experiment with HCC-2998 colon and in the experiment on HS 578T breast was > 100 µM throughout. Also, the TGI in the experiment on MCF7 breast, in the experiment on MDA-MB-231 breast, in the experiment on MDA-N, in the experiment on NCI-H226 lung, in the experiment with SF-295 CNS and in the experiment with SK-MEL-5 melanoma was > 100 µM each time. The TGI with SN12C renal, in the experiment with SNB-19 CNS and with SW-620 colon was > 100 µM each time.

`NC(=O)C(=CNC(N)=S)C(N)=O`: the TGI with 786-0 renal, in the experiment with BT-549 breast, in the experiment with CCRF-CEM leukemia, in the experiment with DU-145 prostate, in the experiment with HCC-2998 colon and in the experiment with HS 578T breast was > 100 µM in each case. Further, the TGI with MCF7 breast, in the experiment on MDA-MB-231 breast, in the experiment on MDA-N, in the experiment with NCI-H226 lung, with SF-295 CNS and in the experiment on SK-MEL-5 melanoma was > 100 µM throughout. The TGI with SN12C renal, with SNB-19 CNS and in the experiment with SW-620 colon was > 100 µM throughout.

`C=Cc1nc2c(Cl)ncnc2n1Cc1ccccc1`: the TGI is 4.49 µM in the experiment on 786-0 renal; 10.9 µM in the experiment with BT-549 breast; > 100 µM with CCRF-CEM leukemia; 7.2 µM in the experiment with DU-145 prostate; 6.76 µM in the experiment with HCC-2998 colon; 50.4 µM in the experiment on HS 578T breast. Further, the TGI in the experiment on MCF7 breast stood at 9.53 µM; with MDA-MB-231 breast it was 19.1 µM; with MDA-N it was 13.6 µM; in the experiment on NCI-H226 lung it was 17 µM; with SF-295 CNS, 32.2 µM; with SK-MEL-5 melanoma, 8.69 µM. For the same compound, the TGI was 17.5 µM with SN12C renal, 31.5 µM in the experiment with SNB-19 CNS and 23.2 µM in the experiment on SW-620 colon.

Regarding `O=C1N(C2CCCCC2)C(=O)N1C1CCCCC1`, the TGI in the experiment with 786-0 renal was > 67.6 µM; with BT-549 breast, 5.29 µM; with CCRF-CEM leukemia, 2.07 µM; with DU-145 prostate it was > 58.9 µM; with HCC-2998 colon it was > 47.3 µM; in the experiment with HS 578T breast it was 2.93 µM. For the same compound, the TGI in the experiment with MCF7 breast was 48.6 µM; with MDA-MB-231 breast it was 15.6 µM; with MDA-N it was 17 µM; with NCI-H226 lung, 11.3 µM; in the experiment on SF-295 CNS, 14.3 µM; in the experiment on SK-MEL-5 melanoma, 4.88 µM. Moreover, the figures for the TGI with SN12C renal, in the experiment with SNB-19 CNS and with SW-620 colon were 16.1 µM, 29.9 µM and 26.4 µM, respectively.

Regarding `Cc1cccc2oc3c(CC(=O)O)cccc3c(=O)c12`, the TGI in the experiment on 786-0 renal was > 100 µM; with BT-549 breast, > 100 µM; with CCRF-CEM leukemia, > 100 µM; in the experiment with DU-145 prostate it was > 100 µM; in the experiment with HCC-2998 colon, 40.9 µM; in the experiment on HS 578T breast, > 100 µM. For the same compound, the TGI in the experiment with MCF7 breast, in the experiment with MDA-MB-231 breast, with MDA-N, in the experiment with NCI-H226 lung, with SF-295 CNS and in the experiment on SK-MEL-5 melanoma was > 100 µM in each case. Moreover, the TGI in the experiment with SN12C renal, with SNB-19 CNS and in the experiment with SW-620 colon was > 100 µM in each case.

Turning to `S=c1nc2sc3c(c2c(Nc2ccc(Cl)cc2)[nH]1)CCCC3`, the TGI in the experiment on 786-0 renal, in the experiment with BT-549 breast, in the experiment with CCRF-CEM leukemia, in the experiment with DU-145 prostate, in the experiment on HCC-2998 colon and in the experiment on HS 578T breast was > 100 µM in each case. The TGI in the experiment on MCF7 breast, in the experiment with MDA-MB-231 breast, in the experiment with MDA-N, in the experiment on NCI-H226 lung, with SF-295 CNS and with SK-MEL-5 melanoma was > 100 µM throughout. Further, the TGI with SN12C renal, with SNB-19 CNS and in the experiment on SW-620 colon was > 100 µM each time.

Consider `CS(=O)(=O)OCCCCOS(=O)(=O)CF`, for which the TGI in the experiment on 786-0 renal, in the experiment on BT-549 breast, with CCRF-CEM leukemia, in the experiment with DU-145 prostate, in the experiment with HCC-2998 colon and with HS 578T breast was > 100 µM throughout. Besides, the TGI with MCF7 breast, in the experiment on MDA-MB-231 breast, in the experiment on MDA-N, in the experiment on NCI-H226 lung, in the experiment on SF-295 CNS and with SK-MEL-5 melanoma was > 100 µM throughout. Further, the TGI with SN12C renal, with SNB-19 CNS and in the experiment on SW-620 colon was > 100 µM in each case.

`C=C1C[C@@H]2CC[C@@]34CC5O[C@H]6C(O[C@H]7CC[C@H](CC(=O)O[C@@H]8[C@@H](C)[C@@H]9O[C@@H]%10C[C@]%11(C[C@@H]%12O[C@]%13(C[C@H](C)[C@@H]%14O[C@@H]%15CC(C(O)CO)O[C@@H]%15C[C@@H]%14O%13)C[C@H](C)[C@@H]%12O%11)O[C@@H]%10C[C@@H]9O[C@H]8CC8O[C@@H](CC[C@@H]1O2)C[C@@H](C)C8(O)CO)O[C@@H]7[C@@H]6O3)[C@H]5O4` (stereo not given in full): the TGI in the experiment on 786-0 renal was > 1 µM; in the experiment on BT-549 breast, 0.469 µM; in the experiment on CCRF-CEM leukemia, > 1 µM; with DU-145 prostate, > 1 µM; in the experiment on HCC-2998 colon, > 1 µM; with HS 578T breast it was > 0.815 µM. The TGI in the experiment on MCF7 breast, with MDA-MB-231 breast, in the experiment on MDA-N, with NCI-H226 lung, with SF-295 CNS and with SK-MEL-5 melanoma was > 1 µM each time. The TGI in the experiment with SN12C renal, in the experiment on SNB-19 CNS and with SW-620 colon was > 1 µM throughout.

Consider `Cc1ccc(Cc2n[nH]c(=O)[nH]2)cc1`, for which the TGI with 786-0 renal, with BT-549 breast, in the experiment with CCRF-CEM leukemia, in the experiment on DU-145 prostate, with HCC-2998 colon and with HS 578T breast was > 100 µM in each case. Besides, the TGI with MCF7 breast, with MDA-MB-231 breast, in the experiment with MDA-N, in the experiment on NCI-H226 lung, in the experiment on SF-295 CNS and in the experiment on SK-MEL-5 melanoma was > 100 µM in each case. Moreover, the TGI in the experiment on SN12C renal, in the experiment on SNB-19 CNS and in the experiment with SW-620 colon was > 100 µM throughout.
